From ChEMBL document CHEMBL1201862, “PubChem BioAssay data set” (2004)
Calls of active or inactive are those of the source.

What was measured:
[1] = molecular target: Cytochrome P450 3A4 (Homo sapiens, UniProt P08684); conditions: Potency;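 also: confirmatory qHTS run detecting inhibitors and substrates of CYP3A4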
[2] = molecular target: T1, Luciferin 4-monooxygenase (Photinus pyralis, UniProt P08659); assay: Counter Screen for Luciferase-based Assay Positives. [Related pubchem assays: 620, 618, 411 ]
T1 sequence (P08659 whole entry): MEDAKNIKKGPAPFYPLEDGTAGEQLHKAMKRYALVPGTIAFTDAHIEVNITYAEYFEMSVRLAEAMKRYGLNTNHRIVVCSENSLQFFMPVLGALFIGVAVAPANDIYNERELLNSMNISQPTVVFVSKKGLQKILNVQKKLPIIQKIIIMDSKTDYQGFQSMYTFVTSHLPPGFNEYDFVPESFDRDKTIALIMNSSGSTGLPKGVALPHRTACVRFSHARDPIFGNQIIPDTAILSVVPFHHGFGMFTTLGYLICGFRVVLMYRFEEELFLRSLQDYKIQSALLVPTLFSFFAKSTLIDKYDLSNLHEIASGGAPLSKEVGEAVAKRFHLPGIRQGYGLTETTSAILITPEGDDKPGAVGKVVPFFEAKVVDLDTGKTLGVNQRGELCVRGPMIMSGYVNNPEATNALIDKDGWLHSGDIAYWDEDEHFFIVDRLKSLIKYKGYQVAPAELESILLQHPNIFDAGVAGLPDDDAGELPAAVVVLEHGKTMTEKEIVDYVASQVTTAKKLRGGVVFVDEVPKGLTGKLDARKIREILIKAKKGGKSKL

[3] = tested on: HT-1080; assay: cytotoxicity in HT1080 fibrosarcoma cells, cell-based, fluorescence readout (AID 620); type: functional; conditions: Homo sapiens
[4] = LGR2 antagonists, dose response, cell-based, HEK293, CRE-luciferase reporter, cherry pick, set 2 (AID 743343); type: functional;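 also: transfected cells were stimulated with diluted bursicon conditioned medium after compound addition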
[5] = MC4R antagonists, dose response, counter-screen for LGR2 antagonist project, cell-based, plate reader, cherry pick (AID 743444); type: functional;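 also: transfected HEK 293 cells stimulated with alpha-MSH peptide; potency of inhibitors of the alpha-MSH evoked signal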
[6] = molecular target: T2, RNA-binding protein pos-1 (Caenorhabditis elegans, UniProt G5EF15); assay: inhibitors of POS-1/mex-3 RNA binding, dose response, biochemical, fluorescence polarization (AID 1964);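 also: purified POS-1 fused to maltose binding protein made in E. coli; potency of compounds blocking POS-1 binding to fluorescent RNA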
T2 sequence (G5EF15 whole entry): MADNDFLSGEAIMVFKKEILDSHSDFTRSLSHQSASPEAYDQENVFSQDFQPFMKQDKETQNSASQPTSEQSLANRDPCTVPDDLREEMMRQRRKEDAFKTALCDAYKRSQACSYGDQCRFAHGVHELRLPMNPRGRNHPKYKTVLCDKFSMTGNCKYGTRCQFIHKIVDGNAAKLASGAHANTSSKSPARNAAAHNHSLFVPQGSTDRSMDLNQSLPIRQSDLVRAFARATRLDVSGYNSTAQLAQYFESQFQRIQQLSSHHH

[7] = molecular target: T3, Zinc finger protein mex-5 (Caenorhabditis elegans, UniProt Q9XUB2); assay: MEX-5/TCR-2 RNA interaction inhibitors, dose response, biochemical, C. elegans, fluorescence polarization (AID 1960)
T3 sequence (Q9XUB2 whole entry): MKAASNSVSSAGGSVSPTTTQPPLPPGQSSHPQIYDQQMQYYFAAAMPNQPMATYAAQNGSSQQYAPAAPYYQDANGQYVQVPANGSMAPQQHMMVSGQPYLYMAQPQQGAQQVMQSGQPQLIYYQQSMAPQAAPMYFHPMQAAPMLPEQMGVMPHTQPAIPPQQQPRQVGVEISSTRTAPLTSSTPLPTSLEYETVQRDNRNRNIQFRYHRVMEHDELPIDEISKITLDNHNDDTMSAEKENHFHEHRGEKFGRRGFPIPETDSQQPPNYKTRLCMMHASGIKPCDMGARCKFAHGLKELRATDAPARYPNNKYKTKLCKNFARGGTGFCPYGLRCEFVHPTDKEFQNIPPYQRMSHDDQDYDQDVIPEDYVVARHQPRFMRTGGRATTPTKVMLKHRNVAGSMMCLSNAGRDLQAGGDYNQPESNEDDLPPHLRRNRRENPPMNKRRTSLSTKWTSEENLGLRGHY

[8] = molecular target: T1, Luciferin 4-monooxygenase; assay: firefly luciferase enzyme inhibitors, dose response, biochemical, luminescence (AID 1891)
[9] = Luminescence Cell-Based Dose Confirmation HTS to Identify Inhibitors of Platelet Dense Granule Release. [Related pubchem assays: 1663 (Primary HTS), 1678 (Summary of Project)]; type: functional
[10] = tested on: HeLa; assay: HeLa cell cytotoxicity, dose response, cytotoxicity control, 24 h, cherry-picked samples (AID 504726); type: functional, cell-based; conditions: Homo sapiens;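 also: potency for cytotoxicity as loss of luminescence signal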
[11] = molecular target: T4, Lysine-specific demethylase 4C (Homo sapiens, UniProt Q9H3R0); assay: GASC-1 (JMJD2C) histone demethylase inhibitors, dose response, biochemical, DELFIA europium, cherry-picked samples (AID 488835); type: functional
T4 sequence (Q9H3R0 whole entry): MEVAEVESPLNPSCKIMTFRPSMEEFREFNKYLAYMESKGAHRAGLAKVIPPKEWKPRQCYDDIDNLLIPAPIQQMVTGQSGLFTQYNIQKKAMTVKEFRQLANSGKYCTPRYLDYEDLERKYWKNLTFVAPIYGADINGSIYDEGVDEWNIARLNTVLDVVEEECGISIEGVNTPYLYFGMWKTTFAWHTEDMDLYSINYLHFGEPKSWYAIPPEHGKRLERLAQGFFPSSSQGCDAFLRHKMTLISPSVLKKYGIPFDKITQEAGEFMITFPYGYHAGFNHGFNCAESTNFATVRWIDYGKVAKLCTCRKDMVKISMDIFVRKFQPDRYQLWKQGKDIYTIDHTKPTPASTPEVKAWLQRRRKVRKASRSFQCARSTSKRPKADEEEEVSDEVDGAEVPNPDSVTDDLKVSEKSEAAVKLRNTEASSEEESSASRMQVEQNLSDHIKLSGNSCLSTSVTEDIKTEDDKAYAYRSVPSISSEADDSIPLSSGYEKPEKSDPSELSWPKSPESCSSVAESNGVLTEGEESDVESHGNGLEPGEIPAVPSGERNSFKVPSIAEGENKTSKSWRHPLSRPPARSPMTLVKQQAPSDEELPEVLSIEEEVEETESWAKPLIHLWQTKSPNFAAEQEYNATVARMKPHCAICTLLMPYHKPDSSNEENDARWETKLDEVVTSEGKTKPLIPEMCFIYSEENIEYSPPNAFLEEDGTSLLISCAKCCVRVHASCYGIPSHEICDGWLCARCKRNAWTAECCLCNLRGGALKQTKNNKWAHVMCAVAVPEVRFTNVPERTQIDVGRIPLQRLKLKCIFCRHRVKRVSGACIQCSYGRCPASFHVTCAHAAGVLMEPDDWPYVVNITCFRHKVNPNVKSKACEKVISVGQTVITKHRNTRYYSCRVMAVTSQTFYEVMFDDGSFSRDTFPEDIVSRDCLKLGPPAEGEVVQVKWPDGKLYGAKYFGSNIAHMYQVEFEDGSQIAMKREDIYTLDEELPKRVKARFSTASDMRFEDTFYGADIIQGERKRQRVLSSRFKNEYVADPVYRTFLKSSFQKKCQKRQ

[12] = inhibitors of firefly luciferase expression or activity, dose response, H4 neuroglioma cells, luminescence (AID 1990); type: functional, cell-based
[13] = Luminescence Cell-Based Dose Response HTS to Identify Inhibitors of 5'UTR Stem-Loop Driven Prion Protein mRNA Translation in H4 Neuroglioblastoma Cells. [Related pubchem assays: 1827 (Project Summary), 1813 (Primary HTS)]; type: functional
[14] = inhibitors of SNCA 5'UTR-driven reporter translation, confirmation, H4 neuroglioma cells, luminescence (AID 1988); type: functional, cell-based
[15] = cytotoxicity in HPDE-C7 cells, cell-based, fluorescence, HTS (AID 430); type: functional; conditions: Homo sapiens
[16] = microbe, parasite or virus in culture; type: functional; conditions: Mycobacterium tuberculosis
[17] = cytotoxicity in KRAS-transformed pancreatic duct cells, primary screen, cell-based, fluorescence, HTS (AID 431); type: functional; conditions: Homo sapiens;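 also: cell line used: HPDE-C7K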
[18] = growth suppression of PTEN-null colon cells, dose response, cell-based, HCT116 PTEN knockout (AID 1047); type: functional;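 also: HCT116 colon tumor cells with PTEN knocked out; cells exposed to compound for 60 hours before readout; potency for loss of cell viability measured by luminescence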
[19] = growth suppression of beta-catenin-knockout colon cells, dose response, cell-based, HCT116, human colon tumor (AID 1045); type: functional;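 also: HCT116 colon tumor cells with beta catenin knocked out; cells exposed to compound for 60 hours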
[20] = cytotoxicity in HEK-293T cells, dose response, cytotoxicity control for BCR NF-kB inhibitor project, luminescence, B-cell screen hits (AID 489021); type: functional, cell-based;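 also: HEK-293T cells carrying an NF-kB luciferase reporter; cells exposed to compound for about 14 hours before viability readout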
[21] = tested on: Vero; assay: Vero cell cytotoxicity, cytotoxicity control for flavivirus capping enzyme inhibitors (AID 588742); type: functional; conditions: Chlorocebus sabaeus
[22] = molecular target: Peroxisome proliferator-activated receptor gamma/Nuclear receptor coactivator 2 (Homo sapiens, UniProt P37231); type: functional;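 also: agonist potency for raising coactivator recruitment to the receptor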
Sequence of Peroxisome proliferator-activated receptor gamma/Nuclear receptor coactivator 2 (P37231 whole entry): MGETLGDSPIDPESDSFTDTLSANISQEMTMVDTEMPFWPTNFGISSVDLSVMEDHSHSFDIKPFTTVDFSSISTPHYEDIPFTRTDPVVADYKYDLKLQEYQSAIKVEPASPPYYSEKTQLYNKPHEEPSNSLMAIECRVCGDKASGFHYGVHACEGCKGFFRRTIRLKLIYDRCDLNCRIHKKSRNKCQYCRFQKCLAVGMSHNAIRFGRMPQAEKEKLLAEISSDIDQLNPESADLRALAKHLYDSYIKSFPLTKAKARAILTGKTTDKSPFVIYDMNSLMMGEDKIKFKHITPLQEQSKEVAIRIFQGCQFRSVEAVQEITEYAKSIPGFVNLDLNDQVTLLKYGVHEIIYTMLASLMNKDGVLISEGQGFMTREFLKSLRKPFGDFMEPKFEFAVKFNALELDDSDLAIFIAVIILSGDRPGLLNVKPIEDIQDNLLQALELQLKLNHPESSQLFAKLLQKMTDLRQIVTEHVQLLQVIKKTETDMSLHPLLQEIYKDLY
Sequence of Peroxisome proliferator-activated receptor gamma/Nuclear receptor coactivator 2 (Q15596 whole entry, further chain): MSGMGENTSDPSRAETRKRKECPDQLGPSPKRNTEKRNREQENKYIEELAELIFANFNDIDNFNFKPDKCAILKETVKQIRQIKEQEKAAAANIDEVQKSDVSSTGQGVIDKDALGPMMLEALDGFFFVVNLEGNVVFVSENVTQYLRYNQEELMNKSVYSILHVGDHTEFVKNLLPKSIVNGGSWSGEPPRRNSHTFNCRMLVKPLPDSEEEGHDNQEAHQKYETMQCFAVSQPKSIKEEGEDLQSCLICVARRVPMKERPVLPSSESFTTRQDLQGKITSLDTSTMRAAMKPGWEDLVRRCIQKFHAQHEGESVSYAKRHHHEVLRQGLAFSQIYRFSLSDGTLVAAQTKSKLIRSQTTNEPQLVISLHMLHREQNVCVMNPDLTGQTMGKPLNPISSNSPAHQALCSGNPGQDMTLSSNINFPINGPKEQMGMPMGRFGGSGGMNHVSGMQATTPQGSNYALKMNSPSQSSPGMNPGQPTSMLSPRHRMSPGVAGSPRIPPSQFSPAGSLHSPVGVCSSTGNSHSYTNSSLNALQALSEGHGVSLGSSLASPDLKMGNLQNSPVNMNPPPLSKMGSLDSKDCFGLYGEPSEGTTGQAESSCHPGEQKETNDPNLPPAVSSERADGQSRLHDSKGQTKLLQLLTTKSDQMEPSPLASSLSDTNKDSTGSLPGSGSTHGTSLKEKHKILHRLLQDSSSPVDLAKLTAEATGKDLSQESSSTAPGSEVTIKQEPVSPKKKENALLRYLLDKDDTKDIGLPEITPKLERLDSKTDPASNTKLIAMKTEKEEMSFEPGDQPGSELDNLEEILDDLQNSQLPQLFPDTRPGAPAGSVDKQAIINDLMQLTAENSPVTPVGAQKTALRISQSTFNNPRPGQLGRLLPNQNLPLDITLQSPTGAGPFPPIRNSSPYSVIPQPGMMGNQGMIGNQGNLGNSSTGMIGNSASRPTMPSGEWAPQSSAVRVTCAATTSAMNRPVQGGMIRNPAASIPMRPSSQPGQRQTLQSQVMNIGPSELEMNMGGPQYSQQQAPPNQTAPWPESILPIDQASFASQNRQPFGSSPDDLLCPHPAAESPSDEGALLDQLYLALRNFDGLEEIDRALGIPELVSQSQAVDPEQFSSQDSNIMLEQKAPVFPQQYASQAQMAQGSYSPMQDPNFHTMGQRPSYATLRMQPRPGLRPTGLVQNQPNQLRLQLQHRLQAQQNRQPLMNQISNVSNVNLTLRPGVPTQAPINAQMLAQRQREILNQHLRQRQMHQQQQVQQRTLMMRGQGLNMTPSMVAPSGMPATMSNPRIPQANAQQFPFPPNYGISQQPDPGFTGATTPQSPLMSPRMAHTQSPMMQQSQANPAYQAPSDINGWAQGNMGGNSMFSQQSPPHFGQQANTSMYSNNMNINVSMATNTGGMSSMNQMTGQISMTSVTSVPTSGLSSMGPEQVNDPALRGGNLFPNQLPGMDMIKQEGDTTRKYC

[23] = molecular target: Peroxisome proliferator-activated receptor gamma/Nuclear receptor coactivator 1 (Homo sapiens, UniProt P37231); type: functional;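 also: agonist potency as compounds enhance coactivator SRC-1 recruitment to PPARgamma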
Sequence of Peroxisome proliferator-activated receptor gamma/Nuclear receptor coactivator 1 (P37231 whole entry): as the sequence (P37231 whole entry) above
Sequence of Peroxisome proliferator-activated receptor gamma/Nuclear receptor coactivator 1 (Q15788 whole entry, further chain): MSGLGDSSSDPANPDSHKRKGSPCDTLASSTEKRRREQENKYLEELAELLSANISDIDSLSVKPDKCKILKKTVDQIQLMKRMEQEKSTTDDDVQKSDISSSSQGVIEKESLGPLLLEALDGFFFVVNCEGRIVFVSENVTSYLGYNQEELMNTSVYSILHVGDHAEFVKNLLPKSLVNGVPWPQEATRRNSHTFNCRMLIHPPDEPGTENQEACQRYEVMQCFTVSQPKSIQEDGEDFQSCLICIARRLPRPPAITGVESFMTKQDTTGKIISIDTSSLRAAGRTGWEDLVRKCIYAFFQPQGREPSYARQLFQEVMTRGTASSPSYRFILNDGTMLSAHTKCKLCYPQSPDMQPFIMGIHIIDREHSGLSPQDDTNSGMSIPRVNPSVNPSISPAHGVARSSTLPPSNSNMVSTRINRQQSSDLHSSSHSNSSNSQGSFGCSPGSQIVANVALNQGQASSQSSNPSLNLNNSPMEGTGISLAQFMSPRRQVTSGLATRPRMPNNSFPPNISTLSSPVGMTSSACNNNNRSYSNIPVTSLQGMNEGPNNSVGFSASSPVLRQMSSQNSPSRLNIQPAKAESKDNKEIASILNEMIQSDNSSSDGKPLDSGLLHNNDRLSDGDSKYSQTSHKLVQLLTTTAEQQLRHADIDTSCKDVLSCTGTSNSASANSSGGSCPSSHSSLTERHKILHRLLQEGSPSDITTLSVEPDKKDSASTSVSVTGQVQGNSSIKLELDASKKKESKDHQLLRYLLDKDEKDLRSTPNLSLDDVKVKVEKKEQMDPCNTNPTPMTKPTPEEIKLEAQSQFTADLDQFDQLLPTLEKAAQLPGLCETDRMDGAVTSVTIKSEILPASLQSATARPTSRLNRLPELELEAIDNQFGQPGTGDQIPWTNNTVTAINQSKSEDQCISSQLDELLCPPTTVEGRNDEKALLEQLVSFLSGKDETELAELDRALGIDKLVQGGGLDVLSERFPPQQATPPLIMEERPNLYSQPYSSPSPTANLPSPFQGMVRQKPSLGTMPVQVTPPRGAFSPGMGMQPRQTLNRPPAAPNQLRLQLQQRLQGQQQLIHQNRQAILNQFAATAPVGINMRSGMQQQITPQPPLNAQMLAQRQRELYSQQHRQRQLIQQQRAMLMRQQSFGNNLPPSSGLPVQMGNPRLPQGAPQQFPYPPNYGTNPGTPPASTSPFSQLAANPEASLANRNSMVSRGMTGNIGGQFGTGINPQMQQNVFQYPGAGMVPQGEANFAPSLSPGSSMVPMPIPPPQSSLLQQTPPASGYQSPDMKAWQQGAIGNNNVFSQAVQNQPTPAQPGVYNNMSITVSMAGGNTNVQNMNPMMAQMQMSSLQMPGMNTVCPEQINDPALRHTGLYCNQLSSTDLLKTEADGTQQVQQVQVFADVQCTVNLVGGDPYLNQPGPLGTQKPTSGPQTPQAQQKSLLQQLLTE

[24] = molecular target: Peroxisome proliferator-activated receptor gamma/Nuclear receptor coactivator 3 (Homo sapiens, UniProt P37231); type: functional;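 also: agonist potency for raising coactivator recruitment to the receptor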
[25] = molecular target: T5, ORF 73 (Human herpesvirus 8, UniProt O40947); assay: inhibitors of C-LANA binding to LBS DNA, dose response, biochemical, fluorescence polarization, cherry-picked samples (AID 504725); set-up: species or system Human gammaherpesvirus 8;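 also: fluorescence polarization of a labeled DNA duplex reporting LANA DNA binding; potency is for inhibitors that block LANA binding to the DNA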
T5 sequence (O40947 whole entry): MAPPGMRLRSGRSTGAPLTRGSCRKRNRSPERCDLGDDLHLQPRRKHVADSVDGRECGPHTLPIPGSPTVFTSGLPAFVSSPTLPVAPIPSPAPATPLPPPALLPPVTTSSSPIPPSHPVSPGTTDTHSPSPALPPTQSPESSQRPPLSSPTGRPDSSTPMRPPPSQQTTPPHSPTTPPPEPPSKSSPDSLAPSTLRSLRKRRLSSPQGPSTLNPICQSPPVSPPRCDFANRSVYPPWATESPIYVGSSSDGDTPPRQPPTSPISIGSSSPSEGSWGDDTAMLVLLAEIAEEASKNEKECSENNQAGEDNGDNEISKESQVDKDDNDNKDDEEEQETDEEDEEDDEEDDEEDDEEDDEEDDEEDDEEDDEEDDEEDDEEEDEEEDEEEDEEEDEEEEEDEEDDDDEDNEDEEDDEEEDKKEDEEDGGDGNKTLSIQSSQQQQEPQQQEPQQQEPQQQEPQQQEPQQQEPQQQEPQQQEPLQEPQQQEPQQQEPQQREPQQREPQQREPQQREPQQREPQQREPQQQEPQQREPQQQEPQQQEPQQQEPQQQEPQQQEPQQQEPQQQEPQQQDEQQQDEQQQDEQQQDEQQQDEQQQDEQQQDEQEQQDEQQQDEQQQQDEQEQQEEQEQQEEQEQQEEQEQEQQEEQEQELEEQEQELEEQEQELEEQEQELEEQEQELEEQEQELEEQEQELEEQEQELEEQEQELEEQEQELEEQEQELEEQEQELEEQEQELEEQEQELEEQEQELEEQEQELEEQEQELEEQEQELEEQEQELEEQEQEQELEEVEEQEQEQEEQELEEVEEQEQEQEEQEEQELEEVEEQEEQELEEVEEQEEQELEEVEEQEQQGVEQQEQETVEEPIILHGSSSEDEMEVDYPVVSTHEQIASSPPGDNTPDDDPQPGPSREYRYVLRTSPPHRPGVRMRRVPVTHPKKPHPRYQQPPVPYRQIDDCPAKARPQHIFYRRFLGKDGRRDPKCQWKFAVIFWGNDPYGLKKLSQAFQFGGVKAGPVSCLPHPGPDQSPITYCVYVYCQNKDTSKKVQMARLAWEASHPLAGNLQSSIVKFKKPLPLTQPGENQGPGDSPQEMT

[26] = molecular target: T6, Endoribonuclease toxin MazF (Escherichia coli K-12, UniProt P0AE70); assay: MazF toxin RNase activators, dose response, biochemical, fluorescence, single-stranded RNA substrate, uHTS hits (AID 588481); type: functional
T6 sequence (P0AE70 whole entry): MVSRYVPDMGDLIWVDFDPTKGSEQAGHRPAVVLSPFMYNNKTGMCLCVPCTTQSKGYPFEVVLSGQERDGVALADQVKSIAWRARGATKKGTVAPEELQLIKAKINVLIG

[27] = molecular target: T6, Endoribonuclease toxin MazF; assay: fluorescent RNA oligo signal without MazF, dose response, counter-screen for MazEF activator project, biochemical, fluorescence, single-stranded RNase substrate (AID 588502); type: functional
[28] = molecular target: T7, Corticotropin-releasing factor receptor 2/Corticotropin-releasing factor-binding protein (Homo sapiens, UniProt P24387+Q13324); assay: activators of CRF receptor 2 with binding protein – uHTS hits, confirmation (AID 602473); type: functional; conditions: read-out: EC50_Mean
T7 sequence (Q13324 whole entry): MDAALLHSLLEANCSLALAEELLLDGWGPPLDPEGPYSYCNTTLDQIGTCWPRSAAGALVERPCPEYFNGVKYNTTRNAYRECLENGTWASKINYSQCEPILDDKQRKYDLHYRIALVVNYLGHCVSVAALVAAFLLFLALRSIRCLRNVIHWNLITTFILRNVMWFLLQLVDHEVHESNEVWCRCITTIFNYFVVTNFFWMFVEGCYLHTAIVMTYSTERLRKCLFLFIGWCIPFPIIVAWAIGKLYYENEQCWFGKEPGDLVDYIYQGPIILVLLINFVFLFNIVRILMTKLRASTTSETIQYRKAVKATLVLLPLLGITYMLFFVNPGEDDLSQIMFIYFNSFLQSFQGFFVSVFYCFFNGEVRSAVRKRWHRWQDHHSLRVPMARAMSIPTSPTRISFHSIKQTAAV
T7 sequence (P24387 whole entry): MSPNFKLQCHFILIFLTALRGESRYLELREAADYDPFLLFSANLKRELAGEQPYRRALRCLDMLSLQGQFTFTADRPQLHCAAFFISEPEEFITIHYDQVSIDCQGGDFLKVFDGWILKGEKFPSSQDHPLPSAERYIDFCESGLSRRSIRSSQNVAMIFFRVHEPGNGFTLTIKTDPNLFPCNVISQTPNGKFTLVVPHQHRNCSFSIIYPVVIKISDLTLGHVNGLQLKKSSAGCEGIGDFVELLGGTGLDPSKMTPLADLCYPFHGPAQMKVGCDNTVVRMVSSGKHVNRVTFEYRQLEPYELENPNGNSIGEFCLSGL

Sequence of Cytochrome P450 3A4 (P08684 whole entry): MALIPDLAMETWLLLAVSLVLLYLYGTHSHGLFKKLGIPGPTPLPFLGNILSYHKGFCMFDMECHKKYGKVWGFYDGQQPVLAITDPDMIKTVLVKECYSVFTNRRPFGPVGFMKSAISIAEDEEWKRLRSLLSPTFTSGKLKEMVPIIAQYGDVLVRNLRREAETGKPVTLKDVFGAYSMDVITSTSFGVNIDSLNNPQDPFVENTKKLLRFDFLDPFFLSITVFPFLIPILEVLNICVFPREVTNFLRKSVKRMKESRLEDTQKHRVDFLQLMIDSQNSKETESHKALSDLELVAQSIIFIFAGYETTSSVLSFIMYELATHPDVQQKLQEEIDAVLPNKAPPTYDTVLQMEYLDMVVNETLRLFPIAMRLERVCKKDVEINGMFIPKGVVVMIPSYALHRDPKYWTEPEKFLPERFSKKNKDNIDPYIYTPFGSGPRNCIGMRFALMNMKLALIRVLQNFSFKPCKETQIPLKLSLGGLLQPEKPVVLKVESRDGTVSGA

C[C@@H]1CCC2[C@](C)(CO)C(O)CC[C@@]2(C)[C@@]12CC[C@](CO)(CCO)O2 (some centres undefined)
AC50 [1]: 25.1 µM (inconclusive)

Oc1ccc(Cl)c(Cl)c1Cl
AC50 [1]: 15.8 µM (inconclusive)

CCCCCc1ccc(-c2ccc(C(=O)O)cc2)nc1
EC50 [2]: 43.4 µM (active)
EC50 [3]: > 50 µM (not active)
AC50 [4]: 13.9 µM (active)
AC50 [5]: 14.1 µM (active)

Cc1cc(NS(=O)(=O)c2ccc(Nc3nc(-c4sc(N)nc4C)cs3)cc2)no1
EC50 [6]: 9.62 µM (active)
EC50 [7]: 7.76 µM (active)
EC50 [8]: > 112 µM (not active)
EC50 [9]: > 112 µM (not active)
AC50 [10]: 52.4 µM (active)
AC50 [11]: 8.48 µM (active)

CC1CC(C)(C)Nc2ccc(OC(=O)c3ccco3)cc21 (centres undefined)
EC50 [12]: 8.25 µM (active)
EC50 [2]: < 0.2 µM (active)
EC50 [13]: 14.8 µM (active)
EC50 [14]: 20.1 µM (active)
EC50 [15]: 10.1 µM (active)
CC50 [16]: 30 µM (active)
EC50 [17]: 9.77 µM (active)
EC50 [18]: 8.58 µM (active)
EC50 [3]: > 50 µM (not active)
EC50 [19]: 8.18 µM (active)
IC50 [20]: 50.9 µM (inactive)
CC50 [21]: > 40 µM (active)

Clc1ccc(-c2nnc3sc(-c4ccc(Br)o4)nn23)cc1
EC50 [22]: 39.7 µM (not active)
EC50 [23]: > 79.4 µM (not active)
EC50 [24]: > 79.4 µM (not active)
AC50 [25]: 27.1 µM (active)
EC50 [26]: > 99 µM (inactive)
EC50 [27]: > 99 µM (inactive)
EC50 [28]: > 53 µM (inactive)

CN(C)S(=O)(=O)c1cccc(N2C(=O)CC3(CCCCC3)CC2=O)c1
AC50 [10]: > 350 µM (inactive)
AC50 [25]: 76.9 µM (active)

CC(C)=CCC1=C(O)C(=O)c2ccccc2C1=O [LAPACHOL]
AC50 [1]: 25.1 µM (inconclusive)
